Reference: patent US20230391817A1, “5ALPHA-HYDROXY-6BETA-[2-(1-H-IMIDAZOL-4-YL)-ETHYLAMINO]-CHOLESTAN-3BETA-OL ANALOGUES AND PHARMACEUTICAL COMPOSITIONS COMPRISING SAME FOR USE IN THE TREATMENT OF CANCER” (priority 2020, published 2023)
Where two headings read alike, the source gives them in different places.

What was measured:
MCF-7 breast tumor cells = assay: Microscope observation of treated MCF-7 cells; assay type: cell-based
Experimental: A cell viability test was performed on MCF-7 (Michigan Cancer Foundation-7) breast tumor cells […] (ER(+) cells).
The MCF-7 cells are in a cell culture medium identical to that of Example 5 and are seeded in 12-well plates at 50 000 cells per well. 24 hours after seeding, the cells are treated with vehicle solvate comprising water and ethanol with a 1% o ratio of ethanol, 3β-fluoro-5α-hydroxy-6β-[2-(1H-imidazol-4-yl)ethylamino]cholestane, and 5α-hydroxy-6β-[2-(1H-imidazol-4-yl)ethylamino]cholestan-3β-ol at 1, 2.5 or 5 μM. The cells are observed under an inverted microscope and photographed via the microscope camera at 24 h and 48 h. The morphological changes in the cells at 1 μM are very small. […] The effects are more marked at 2.5 μM and 5 μM with an increase in the number of dead cells. […] After 24 h of treatment with 3β-fluoro-5α-hydroxy-6β-[2-(1H-imidazol-4-yl)ethylamino]-cholestane at 5 μM, 99% of the observed cells are supernatant, reflecting cell death, and 1% of the cells are adherent and show white vesicles. […] The cytostatic effect is illustrated by an inhibition of cell proliferation.

[1] = tested on: murine 4T1 mammary tumor cells; assay: Cell viability of 4T1 cells, LDH; assay type: cell-based; conditions: Mus musculus, 4T1, LDH, 48 h
Experimental: (§1) Cell viability tests were performed on murine 4T1 mammary tumor cells characterized as triple negative (HER2-, ER-, PR-).
(§2) For this experiment, a cell culture medium was prepared. The culture medium consisted of Dulbecco's Modified Eagle Medium (DMEM, sold by Westburg as LO BE12-604F), comprising 4.5 g/L glucose with L-glutamine, to which 10% fetal calf serum (FCS) and 50 U/ml penicillin/streptomycin are added. The 4T1 cells were introduced into this culture medium.
(§3) 96-well plates were seeded with 2000 4T1 cells per well. After 72 hours (h) of culture under normal condition, i.e. in an incubator at 37° C. at […], the 4T1 cells were treated for 48 h with DX101, DX103, DX111, DX123, DX125, DX127 and DX129 at 100 nM, 1 μM, 2.5 μM and 10 μM. A control condition (CTL) is also performed in parallel using the previously described protocol without treatment with the molecules DX101, DX103, DX111, DX123, DX125, DX127 or DX129.
(§4) For the second method, the percentage of viability is determined by assaying the activity of the enzyme LDH (lactate dehydrogenase) in cell supernatants using the non radioactive cytotoxicity assay kit (Promega). LDH is an enzyme released in the supernatant of dead cells. The higher the LDH activity in the supernatant, the greater the cell death. In this enzyme assay, the LDH released converts a violet tetrazolium salt to a red colored formazan, absorbing at 490 nm. The intensity of the red color is proportional to the number of dead cells. After 48 h of treatment, the supernatants are transferred to a new 96-well plate and incubated for 30 minutes in the presence of substrate mix at room temperature. The reaction is stopped with stop solution reagent and the absorbance is determined at 490 nm. The percentage of cell death is determined here using a 100% maximum LDH activity control (made from untreated cells incubated in the presence of lysis solution for 45 minutes at 37° C. just prior to addition of the substrate mix), and the cell viability in each well is then deduced from this percentage. The IC50 is then determined as explained in the preceding paragraph.

[2] = tested on: murine 4T1 mammary tumor cells; assay: Cell viability of 4T1 cells, CellTox Green Cytotoxicity Assay; assay type: cell-based; conditions: Mus musculus, 4T1, Green Cytotoxicity Assay, 48 h
Experimental: as §1, §2, §3
For the third method, the percentage viability is determined using the CellTox Green Cytotoxicity Assay kit (Promega). This assay measures cell death via a change in membrane integrity. […] Consequently, the higher the fluorescence in the wells, the greater the cell death. […] The percentage of cell death is determined using the 100% cell death control (made from untreated cells incubated in the presence of the lysis solution for 30 minutes at 37° C. prior to the addition of Celltox green reagent), and the cell viability in each well is then deduced from this percentage. The IC50 is then determined as explained previously.

[3] = tested on: BT-474 human mammary tumor cells; assay: Cell viability of BT-474 cells, LDH; assay type: cell-based; conditions: BT-474, LDH, 48 h; for Mean LogIC50 (±SEM): log of IC50 in μM; for IC50: Homo sapiens
Experimental: as §4
Cell viability tests were also performed on BT-474 human mammary tumor cells (characterized as triple positive HER2+, ER+, PR+). The BT-474 cells were in a cell culture medium identical to the previous example and seeded in 24-well plates at 70 000 cells per well for cell viability determination using trypan blue, or in 96-well plates at 13 000 cells per well for cell viability determination using the MTT or LDH assay. After 96 hours (h) of culture under normal conditions, i.e. in an incubator at 37° C. with […], BT-474 cells were treated for 48 h with DX101, DX103, DX105, DX111, DX123 and DX127 at 100 nM, 1 μM, 2.5 μM and 10 μM. A control is also performed using the protocol described previously without treatment with DX101, DX103, DX105, DX111, DX123 and DX127.
After a 10-minute trypsin digestion at 37° C., the cell survival was also quantified by means of a trypan blue test with automatic counting using the Biorad TC20 machine (TC20™ Automated Cell Counter). The trypan blue test is based on the integrity of cell membranes, which is disrupted in the dead cells. Trypan blue stains dead cells blue. The Biorad TC20 cell counter counts the proportion of blue and non-blue cells, and reports the percentage of cells. The percentage of viability is then determined in each well relative to the untreated cells and the IC50 is determined as explained in the preceding example. Also, the percentage viability of the BT-474 cells was determined using the MTT and LDH assay, performed as described in the preceding example.

[4] = Pharmacokinetics and bioavailability, oral and I.V., in rats (Example 28); assay type: in vivo; conditions: rat
Experimental: Plasma sampling at 0 (without injection), 15, 30 min, 1 h, 4 h, 8 h, 24 h, 48 h, 72 h

[5] = log of IC50 in μM, read-out: Mean LogIC50 (±SEM) (converted)

With CC(C)CCC[C@@H](C)[C@H]1CC[C@H]2[C@@H]3C[C@@H](NCCc4c[nH]cn4)[C@@]4(O)C[C@@H](O)CC[C@]4(C)[C@H]3CC[C@]12C [DX101, 5α-hydroxy-6β-[2-(1H-imidazol-4-yl)ethylamino]cholestan-3β-ol, reference compound] the “morphological changes in the cells” value (MCF-7 breast tumor cells; 1 μM, 24 h) was “Only a few white vesicles”, the IC50 [1, 5] was 3.24 µM and the IC50 ([1]; read-out: IC50) was 3.24 µM. The IC50 [2, 5] was 2.69 µM, the IC50 ([2]; read-out: IC50) was 2.68 µM and the “Mean LogIC50 (±SEM)” value [3] was 1.03 ± 0.06. It also gave an IC50 [3] of 10600 nM, a clearance ([4]; plasma, iv, 5 mg/kg, read-out: Clearance) of 11 mL/min/kg and a half-life ([4]; plasma, iv, 5 mg/kg, read-out: T½ 2nd phase (converted)) of 28 h. The bioavailability ([4]; plasma, po 50 mg/kg versus iv 5 mg/kg, read-out: F %) was 3%, the half-life ([4]; plasma, po, 50 mg/kg, read-out: T½ 2nd phase (converted)) was 39 h and the “ASC(t0-tlast)” value ([4]; iv, 5 mg/kg, plasma) was 6205. For the same compound, the Cmax ([4]; iv, 5 mg/kg, plasma, read-out: Cmax) was 3310 ng/mL, the Vd ([4]; plasma, iv, 5 mg/kg, iv, 5 mg/kg, read-out: Vd) was 29 L/kg and the Vd ([4]; plasma, iv, 5 mg/kg, iv, 5 mg/kg, read-out: Vss) was 19 L/kg. For the same compound, the clearance ([4]; po, 50 mg/kg) was 412 mL/min/kg, the “ASC(t0-tlast)” value ([4]; po, 50 mg/kg, plasma) was 1546 and the Cmax ([4]; po, 50 mg/kg, plasma, read-out: Cmax) was 77 ng/mL. It also gave a Tmax ([4]; po, 50 mg/kg, plasma, read-out: Tmax) of 4 h.
For CC(C)CCC[C@@H](C)[C@H]1CC[C@H]2[C@@H]3C[C@@H](NCCc4c[nH]cn4)[C@@]4(O)C[C@@H](F)CC[C@]4(C)[C@H]3CC[C@]12C [DX111, 3β-fluoro-5α-hydroxy-6β-[2-(1H-imidazol-4-yl)ethylamino]cholestane], the “morphological changes in the cells” value (MCF-7 breast tumor cells; 1 μM, 24 h) was “Only a few white vesicles”, the “morphological changes in the cells” value (MCF-7 breast tumor cells; 2.5 μM, 24 h) was “numerous white vesicles and detached cells” and the “cytostatic effect compared with 24 h” value (MCF-7 breast tumor cells; 2.5 μM, 48 h) was “stronger cytostatic effect”. For the same compound, the “cells that are adherent and show white vesicles” value (MCF-7 breast tumor cells; 5 μM, 24 h) was 1%, the “observed cells that are supernatant (cell death)” value (MCF-7 breast tumor cells; 5 μM, 24 h) was 99% and the “morphological changes in the cells” value (MCF-7 breast tumor cells; 5 μM, 48 h) was “all the cells are supernatant”. The “effect compared with 5α-hydroxy-6β-[2-(1H-imidazol-4-yl)ethylamino]cholestan-3β-ol” value (MCF-7 breast tumor cells; 24 h of observation) was “greater or equal effect”, the “effect compared with 5α-hydroxy-6β-[2-(1H-imidazol-4-yl)ethylamino]cholestan-3β-ol” value (MCF-7 breast tumor cells; 48 h of observation) was “similar” and the IC50 [1, 5] was 1.86 µM. It also gave an IC50 ([1]; read-out: IC50) of 1.88 µM, an IC50 [2, 5] of 2.19 µM and an IC50 ([2]; read-out: IC50) of 2.18 µM. The “Mean LogIC50 (±SEM)” value [3] was 0.89 ± 0.04, the IC50 [3] was 7820 nM and the bioavailability ([4]; in vivo) was 10%. The “ASC(t0-tlast)” value ([4]; in vivo, iv, 5 mg/kg) was 3516, the Cmax ([4]; in vivo, iv, 5 mg/kg) was 2970 ng/mL and the clearance ([4]; in vivo, iv, 5 mg/kg) was 25 mL/min/kg. It also gave a half-life ([4]; in vivo, iv, 5 mg/kg) of 21 h, a Vd ([4]; in vivo, iv, 5 mg/kg, Vd) of 43 L/kg and a Vd ([4]; in vivo, iv, 5 mg/kg, Vss) of 12 L/kg. The “bioavailability compared with DX101” value ([4]; in vivo, po) was “three-fold higher bioavailability”, the “clearance compared with DX101” value ([4]; in vivo, po) was “halved” and the “maximum plasma concentration compared with DX101” value ([4]; in vivo, po) was “four times higher”. The “ASC(t0-tlast)” value ([4]; in vivo, po, 50 mg/kg) was 3228, the Cmax ([4]; in vivo, po, 50 mg/kg) was 309 ng/mL and the Tmax ([4]; in vivo, po, 50 mg/kg) was 4 h. It also gave a clearance ([4]; in vivo, po, 50 mg/kg) of 240 mL/min/kg and a half-life ([4]; in vivo, po, 50 mg/kg) of 24 h.
